# Structures can show the parent of a compound that is named as a salt. Where two headings read alike, the source gives them in different places.
# System: genetisch hypertonen Ratten
# Experiment: Antihypertensive effect (systolic blood pressure, tail cuff) in spontaneously hypertensive rats after oral dosing
# Format: in vivo, Ratte
# Details: Rattus norvegicus; for change in vivo at 10 µmol/kg: 10 µmol/kg p.o. once daily on four consecutive days; for change in vivo at 25 µmol/kg: 25 µmol/kg p.o. once daily on four consecutive days; for change in vivo at 5 µmol/kg: 5 µmol/kg p.o. once daily on four consecutive days
# Excerpt: Die antihypertensive Wirksamkeit der erfindungsgemäßen Verbindungen kann am Modell der spontan hypertonen Ratte nachgewiesen werden.
# Zur Bestimmung der antihypertensiven Wirkung werden die unten aufgeführten Verbindungen in den angegebenen Dosen an vier aufeinander folgenden Tagen an je 6 männlichen Ratten (Stamm SHR/N/Ibm/Bm, 250-350 g) mit genetisch bedingtem Hochdruck (systolischer Blutdruck > 180 mmHg) täglich einmal mittels Schlundsonde verabfolgt. Die Messung des Blutdrucks erfolgt jeweils 6 und gegebenenfalls 2 oder 24 Studnen nach Substanzgabe.
# Die Blutdruckmessung wird in einer Wärmekammer bei 36°C vorgenommen, um eine bessere Durchblutung der Schwanzarterie zu erreichen. Hierzu werden die Tiere in perforierte Lochblechkäfige verbracht und 20 - 40 Min. nach Beginn der Aufwärmung gemessen. Zur Messung des systolischen arteriellen Drucks wird eine ringförmige Manschette mit aufblasbarer Gummimembran zur Unterbindung der Durchblutung und ein ringförmiger Piezokristallaufnehmer zur Erfassung der Pulswellen auf den Schwanz aufgeschoben. Nach erfolgter Unterbindung des Blutstroms in der Schwanzarterie wird der Manschettendruck kontinuierlich reduziert. Die Wiederkehr der Pulswellen bei Druckablassen wird automatisch als systolischer Blutdruck erkannt und ausgedruckt (Bühler, R. er al." Microprocessor-based automation of blood pressure measurement in the conscious rat. Proceedings of the 4th international symposium on rats with spontaneous hypertension and related studies, Rascher, R. et al. (Eds.), Schattauer Verlag, Stuttgart, New York, 1982, S. 410-413). Pulssignale und Druckverlauf werden zur Auswertung graphisch aufgezeichnet.
# Zur Gewöhnung an den Meßvorgang werden die Tiere vor Substanzprüfung 14 Tage trainiert. In der zweiten Trainingswoche werden Blutdruck-Vorwerte erhoben. Tiergruppen, die Substanz erhalten, werden gegen eine Kontrollgruppe geprüft.
# In der anschließenden Tabelle werden die untersuchten Verbindungen durch laufende Nummern gekennzeichnet, die mit den jewiligen Beispielnummern übereinstimmen.
# Tabelle I gibt für die Vertreter der erfindungsgemäßen Verbindungen die prozentuale Senkung des Blutdrucks (BP) nach oraler Verabreichung bei der Ratte wieder.
# [1] = 2h after dosing, mean of days 1+4, male SHR/N/Ibm/Bm rats, N=6, read-out: BP (% Änderung vs. Kontrolle), Mittelwert für Meßzeitpunkte: Stunden nach Gabe (Tage) 2h (1.+4.Tag)
# [2] = 6h after dosing, mean of days 1-4, male SHR/N/Ibm/Bm rats, N=6, read-out: BP (% Änderung vs. Kontrolle), Mittelwert für Meßzeitpunkte: Stunden nach Gabe (Tage) 6h (1.-4.Tag)
# [3] = 24h after dosing, mean of days 1+3, male SHR/N/Ibm/Bm rats, N=6, read-out: BP (% Änderung vs. Kontrolle), Mittelwert für Meßzeitpunkte: Stunden nach Gabe (Tage) 24h (1.+3.Tag)
Structure (SMILES),change in vivo at 10 µmol/kg [1],change in vivo at 10 µmol/kg [2],change in vivo at 10 µmol/kg [3],change in vivo at 25 µmol/kg [1],change in vivo at 25 µmol/kg [2],change in vivo at 25 µmol/kg [3],other results
"CC1=C(C(=O)OCCCN2CCN(c3ccc4c(c3)OCO4)CC2)C(c2cccc([N+](=O)[O-])c2)C(C(=O)O[C@@H]2C[C@H](C)CC[C@H]2C(C)C)=C(C)N1 (single isomer, unassigned) [Beispiel 16, 1,4-Dihydro-2,6-dimethyl-4-(3-nitrophenyl)-pyridin-3,5-dicarbonsäure-3-(-)-menthyl-5-{3-[4-(3,4-methylendioxyphenyl)-1-piperazinyt]-propyl}ester-fumarat]",-21%,-21%,-7%,,,,
"CC1=C(C(=O)OCCCN2CCN(c3ccccc3C)CC2)C(c2cccc([N+](=O)[O-])c2)C(C(=O)O[C@@H]2C[C@H](C)CC[C@H]2C(C)C)=C(C)N1 (single isomer, unassigned) [Beispiel 17, 1,4-Dihydro-2,6-dimethyl-4-(3-nitrophenyl)-pyridin-3,5-dicarbonsäure-3-(-)-menthyl-5-{3-[4-(2-tolyl)-1-piperazinyl]-propyl}-ester-fumarat]",-17%,-14%,-3%,,,,
"CC1=C(C(=O)OCCCN2CCN(c3ccc(C)cc3C)CC2)C(c2cccc([N+](=O)[O-])c2)C(C(=O)O[C@@H]2C[C@H](C)CC[C@H]2C(C)C)=C(C)N1 (single isomer, unassigned) [Beispiel 18, 1,4-Dihydro-2,6-dimethyl-4-(3-nitrophenyl)-pyridin-3,5-dicarbonsäure-3-(-)-menthyl-5-{3-[4-(2,4-dimethylphenyl)-1-piperazinyl]-propyl}-ester-fumarat]",-15%,-18%,-3%,,,,
"COc1ccccc1N1CCN(CCCOC(=O)C2=C(C)NC(C)=C(C(=O)O[C@@H]3C[C@H](C)CC[C@H]3C(C)C)C2c2cccc(Cl)c2Cl)CC1 (single isomer, unassigned) [Beispiel 21, 4-(2,3-Dichlorphenyl)-1,4-dihydro-2,6-dimethyl-pyridin-3,5-dicarbonsäure-3-(-)-menthyl-5-{3-[4-(2-methoxyphenyl)-1-piperazinyl]-propyl}ester-fumarat]",,,,-50%,-51%,-46%,
"CCOc1ccccc1N1CCN(CCCOC(=O)C2=C(C)NC(C)=C(C(=O)O[C@@H]3C[C@H](C)CC[C@H]3C(C)C)C2c2cccc(Cl)c2Cl)CC1 (single isomer, unassigned) [Beispiel 22, 4-(2,3-Dichlorphenyl)-1,4-dihydro-2,6-dimethyl-pyridin-3,5-dicarbonsäure-3-(-)-menthyl-5-{3-[4-(2-ethoxyphenyl)-1-piperazinyl]-propyl}ester-fumarat]",,,,-46%,-55%,-43%,
"CC1=C(C(=O)OCCN2CCCCC2)C(c2cccc([N+](=O)[O-])c2)C(C(=O)O[C@@H]2C[C@H](C)CC[C@H]2C(C)C)=C(C)N1 (single isomer, unassigned) [Beispiel 23, 1,4-Dihydro-2,6-dimethyl-4-(3-nitrophenyl)-pyridin-3,5-dicarbonsäure-3-(-)-menthyl-5-[2-(1-piperidinyl)-ethyl]-ester-fumarat]",,,,-17%,-26%,4%,
"CC1=C(C(=O)OCCCN2CCC(c3ccccc3)(c3ccccc3)CC2)C(c2cccc([N+](=O)[O-])c2)C(C(=O)O[C@@H]2C[C@H](C)CC[C@H]2C(C)C)=C(C)N1 (stereo partly drawn) [Beispiel 1a, 1,4-Dihydro-2,6-dimethyl-4-(3-nitrophenyl)-pyridin-3,5-dicarbonsäure-3-(-)-menthyl-5-[3-(4,4-diphenylpiperidyl-1)-propyl]-ester-hydrochlorid]",,,,-24%,-20%,-15%,
"CC1=C(C(=O)OCCCN2CCC(c3ccccc3)CC2)C(c2cccc([N+](=O)[O-])c2)C(C(=O)O[C@@H]2C[C@H](C)CC[C@H]2C(C)C)=C(C)N1 (stereo partly drawn) [Beispiel 2a, 1,4-Dihydro-2,6-dimethyl-4-(3-nitrophenyl)-pyridin-3,5-dicarbonsäure-3-(-)-menthyl-5-[3-(4-phenylpiperidyl-1)-propyl]-ester-hydrochlorid]",,,,-25%,-24%,-16%,
"COc1ccccc1N1CCN(CCCOC(=O)C2=C(C)NC(C)=C(C(=O)O[C@@H]3C[C@H](C)CC[C@H]3C(C)C)C2c2cccc([N+](=O)[O-])c2)CC1 (stereo partly drawn) [Beispiel 3a, 1,4-Dihydro-2,6-dimethyl-4-(3-nitrophenyl)-pyridin-3,5-dicarbonsäure-3-(-)-menthyl-5-{3-[4-(2-methoxyphenyl)-1-piperazinyl]-propyl}-ester-fumarat]",,,,-46%,-42%,-15%,
"CC1=C(C(=O)OCCN2CCN(c3ccccc3)CC2)C(c2cccc([N+](=O)[O-])c2)C(C(=O)O[C@@H]2C[C@H](C)CC[C@H]2C(C)C)=C(C)N1 (stereo partly drawn) [Beispiel 4a, 1,4-Dihydro-2,6-dimethyl-4-(3-nitrophenyl)-pyridin-3,5-dicarbonsäure-3-(-)-menthyl-5-[2-(4-phenyl-1-piperazinyl)-ethyl]ester-fumarat]",,,,,,,change in vivo at 5 µmol/kg [1]: -34%; change in vivo at 5 µmol/kg [2]: -23%; change in vivo at 5 µmol/kg [3]: -14%
"CC1=C(C(=O)OCCN2CCN(c3ccccn3)CC2)C(c2cccc([N+](=O)[O-])c2)C(C(=O)O[C@@H]2C[C@H](C)CC[C@H]2C(C)C)=C(C)N1 (stereo partly drawn) [Beispiel 5a, 1,4-Dihydro-2,6-dimethyl-4-(3-nitropheny)-pyridin-3,5-dicarbonsäure-3-(-)-menthyl-5-{2-[4-(2-pyridyl)-1-piperazinyl]-ethyl}-ester-fumarat]",-29%,-11%,-3%,,,,
